Data as given in PMC6968633, “Synthesis, antibacterial and anticancer activity, and docking study of aminoguanidines containing an alkynyl moiety” (Journal of Enzyme Inhibition and Medicinal Chemistry, 2019).
Converted amounts (≈) assume the structure as drawn.

Assays:
[1] = tested on: Staphylococcus aureus CMCC 25923; test: Bacterial resistance development, serial passaging at sub-MIC; type: cell-based; settings: S. aureus, passaging at MIC/2, 20 passages
Description: (§1) To evaluate the propensity for developing bacterial resistance, one of the compounds with high antibacterial activity (3g) was used. The initial MIC values of 3g were determined against bacteria Staphylococcus aureus CMCC 25923 and Escherichia coli CMCC 44568, using norfloxacin and colistin, respectively, as antibiotic controls. Subsequently, serial passaging was initiated by transferring bacterial suspension grown at the sub-MIC of the compound/antibiotics (MIC/2) to a new plate and subjecting it to another assay to determine the (new) MIC. After 22 h incubation, cells grown at the sub-MIC of the test compound/antibiotics were once again transferred and the MIC determined. The process was repeated for 20 or 30 passages for S. aureus and E. coli, respectively. The MIC for 3g, norfloxacin and colistin was plotted as a function of time in days (number of passages) to determine the propensity of bacterial resistance development.
(§2) Bacterial resistance against most antibiotics presents a major problem of current times. Therefore, it is crucial to evaluate the potential emergence of bacterial resistance against these biocides. […] Norfloxacin, an antibiotic generally used to treat the Gram-positive infections, was used as a positive control for S. aureus, whereas colistin, a lipopeptide antibiotic active against Gram-negative bacteria, was used as a positive control for E. coli. These antibacterial agents were repeatedly challenged against bacteria at their sub-MIC values to allow bacteria to develop resistance. Resistance is usually defined as a > 4-fold increase in the original MIC[32].

[2] = tested on: Staphyiococcus aureus CMCC 25923; test: Antibacterial MIC, serial dilution; type: cell-based, Staphylococcus aureus; settings: Staphylococcus aureus, CMCC25923; S. aureus CMCC 25923, 24 h, 37 °C; read-out: MIC
Description: (§3) Test bacteria were grown to mid-log phase in Mueller–Hinton broth (MHB) or Tryptone Soya Broth (TSB) and diluted 1000-fold in the same medium. Bacteria (10^5 CFU/mL) were inoculated into MHB or TSB and dispensed at 0.2 ml/well into a 96-well microtiter plate. As positive controls, gatifloxacin, moxifloxacin, norfloxacin, oxacillin, and penicillin were used. […] Bacterial growth was determined by measuring the absorption at 630 nm using a microplate reader. All experiments were carried out three times.
(§4) The evaluation of antibacterial activity of all compounds (3a–3j and 6a–6k) was performed by a serial dilution method to determine the MIC against a panel of pathogens comprising five Gram-positive strains (S. aureus (CMCC(B) 26003 and CMCC 25923), Streptococcus mutans BNCC 336931, Enterococcus faecalis CMCC 29212, and Bacillus subtilis CMCC 63501), four Gram-negative strains (E. coli (CMCC 25922 and CMCC 44568) and P. aeruginosa (CMCC 27853 and CMCC 10104)), as well as three methicillin-resistant clinical isolates (S. aureus ATCC 43300 and ATCC 33591, P. aeruginosa ATCC BAA-2111). The results are described in Tables 1 and 2. Gatifloxacin, moxifloxacin, norfloxacin, oxacillin, and penicillin were used as positive controls.

[3] = tested on: Methicillin-resistant S. aureus ATCC 33591; test: Bactericidal time-kill assay; type: cell-based, Staphylococcus aureus; settings: MRSA; for nature of antibacterial effect in time-kill assay: 1 × MIC and 2 × MIC
Description: Methicillin-resistant S. aureus ATCC 33591 grown in MHB was used to determine time-kill kinetics. Bacterial suspensions (10^5 CFU/mL) containing test compounds (norflocaxin, compound 3g) at final concentrations of 1 × MIC and 2 × MIC were incubated at 37 °C with shaking. Aliquots (10 μL) were removed from the cultures after 0, 0.5, 1, 2, 3, 4, 6, 8 and 12 h, serially diluted 1000-fold in nutrient solution, and plated onto sterile Mueller-Hinton agar medium. Plates were then incubated for 24 h at 37 °C, the number of CFU was counted, and the total bacterial log10 CFU/mL was determined.

[4] = tested on: Streptococcus mutans BNCC 336931; test: Antibacterial MIC, serial dilution; type: cell-based; settings: Streptococcus mutans, BNCC336931; S. mutans BNCC 336931, 24 h, 37 °C; read-out: MIC
Description: as §3, §4

[5] = tested on: Staphylococcus aureus CMCC(B)26003; test: Antibacterial MIC, serial dilution; type: cell-based; settings: Staphylococcus aureus; S. aureus CMCC(B)26003, 24 h, 37 °C; read-out: MIC
Description: as §3, §4

[6] = tested on: Escherichia coli CMCC 44568; test: Antibacterial MIC, serial dilution; type: cell-based; settings: Escherichia coli, CMCC44568; E. coli CMCC 44568, 24 h, 37 °C; read-out: MIC
Description: as §3, §4

[7] = tested on: Pseudomonas aeruginosa CMCC 27853; test: Antibacterial MIC, serial dilution; type: cell-based; settings: Pseudomonas aeruginosa, CMCC27853; P. aeruginosa CMCC 27853, 24 h, 37 °C; read-out: MIC
Description: as §3, §4

[8] = tested on: Pseudomonas aeruginosa CMCC 10104; test: Antibacterial MIC, serial dilution; type: cell-based; settings: Pseudomonas aeruginosa, CMCC10104; P. aeruginosa CMCC 10104, 24 h, 37 °C; read-out: MIC
Description: as §3, §4

[9] = tested on: Enterococcus faecalis CMCC 29212; test: Antibacterial MIC, serial dilution; type: cell-based; settings: Enterococcus faecalis, CMCC29212; E. faecalis CMCC 29212, 24 h, 37 °C; read-out: MIC
Description: as §3, §4

[10] = tested on: Escherichia coli CMCC 25922; test: Antibacterial MIC, serial dilution; type: cell-based; settings: Escherichia coli, CMCC25922; E. coli CMCC 25922, 24 h, 37 °C; read-out: MIC
Description: as §3, §4

[11] = tested on: Bacillus subtilis CMCC 63501; test: Antibacterial MIC, serial dilution; type: cell-based; settings: Bacillus subtilis, CMCC63501; B. subtilis CMCC 63501, 24 h, 37 °C; read-out: MIC
Description: as §3, §4

[12] = tested on: Staphylococcus aureus ATCC 33591; test: Antibacterial MIC, multidrug-resistant clinical isolate; type: cell-based; settings: Staphylococcus aureus, ATCC33591; multidrug-resistant S. aureus ATCC 33591; read-out: MIC
Description: as §3, §4

[13] = tested on: Pseudomonas aeruginosa ATCC BAA-2111; test: as above; type: cell-based; settings: ATCCBAA2111, multidrug-resistant P. aeruginosa ATCC BAA-2111
Description: as §3, §4

[14] = tested on: Staphylococcus aureus ATCC 43300; test: as above; type: cell-based; settings: Staphylococcus aureus, ATCC43300; multidrug-resistant S. aureus ATCC 43300; read-out: MIC
Description: as §3, §4

[15] = tested on: Escherichia coli CMCC 44568; test: Bacterial resistance development, serial passaging at sub-MIC; type: cell-based; settings: E. coli, passaging at MIC/2
Description: as §1, §2

[16] = tested on: L02; test: Cytotoxicity, CCK-8 assay, normal cell line; type: cell-based; settings: L02 normal human hepatocytes, 48 h
Description: (§5) A lung cancer cell line (A549), gastric cancer cell line (SGC7901) and human hepatocytes (L02) were used to test the anticancer activity and cytotoxicity of the new compounds. 5-Fluorouracil (5-FU) was used as the positive control against cancer cell lines. The A549, SGC7901 and L02 cells were grown in Dulbecco’s modified Eagle’s medium (DMEM) supplemented with 10% foetal bovine serum (FBS) and antibiotics (100 U/mL penicillin-streptomycin). Cells at 80–90% confluence were split by trypsin (0.25% in PBS; pH 7.4), and the medium was changed at 24 h intervals. The cells were cultured at 37 °C in a 5% CO2 incubator. The cells were passaged three times, then approximately 1 × 10^4 cells were seeded into each well of a 96-well plate and allowed to incubate to allow attachment of the cells to the surface. After 24 h, the medium was replaced with DMEM supplemented with 10% FBS containing various concentrations (0.1, 0.3, 1, 3, 10, and 30 μg/mL) of test compounds. Each concentration was tested in triplicate. After 48 h treatment, 20 µL of CCK-8 solution was added to each well and the optical density measured at 450 nm after 3 h using a microplate reader. The IC50 values were defined as the concentrations inhibiting 50% of cell growth.

[17] = tested on: A549; test: Cytotoxicity, CCK-8 assay; type: cell-based; settings: Homo sapiens, A549 lung cancer cells, 48 h
Description: as §5

[18] = tested on: SGC7901; test: Cytotoxicity, CCK-8 assay; type: cell-based; settings: Homo sapiens, SGC-7901, SGC7901 gastric cancer cells, 48 h
Description: as §5

SMILES	increase in MIC on serial passaging [1]	MIC [2] [µg/mL]	nature of antibacterial effect in time-kill assay [3]	MIC [4] [µg/mL]	MIC [5] [µg/mL]	MIC [6] [µg/mL]	MIC [7] [µg/mL]	MIC [8] [µg/mL]	MIC [9] [µg/mL]	MIC [10] [µg/mL]	MIC [11] [µg/mL]	MIC [12] [µg/mL]	MIC [13] [µg/mL]	MIC [14] [µg/mL]	also measured
CCn1cc(C(=O)O)c(=O)c2cc(F)c(N3CCNCC3)cc21 [Norfloxacin, reference compound]	approximately 32 fold	0.125 (≈ 0.391 µM)	bacteriostatic, not bactericidal	16 (≈ 50.1 µM)	0.125 (≈ 0.391 µM)	0.125 (≈ 0.391 µM)	2 (≈ 6.26 µM)	4 (≈ 12.5 µM)	1 (≈ 3.13 µM)	0.125 (≈ 0.391 µM)	2 (≈ 6.26 µM)	0.25 (≈ 0.783 µM)	1 (≈ 3.13 µM)	0.5 (≈ 1.57 µM)	
N=C(N)NN=Cc1ccc(C#Cc2ccc(Cl)cc2)cc1 [Compound 3g, 2-(4-((4-Chlorophenyl)ethynyl)benzylidene)hydrazine-1-carboximidamide]	little change	0.5 (≈ 1.68 µM)	rapidly bactericidal	0.5 (≈ 1.68 µM)	0.5 (≈ 1.68 µM)	2 (≈ 6.74 µM)	> 128	1 (≈ 3.37 µM)	0.5 (≈ 1.68 µM)	2 (≈ 6.74 µM)	0.25 (≈ 0.842 µM)	0.5 (≈ 1.68 µM)	4 (≈ 13.5 µM)	1 (≈ 3.37 µM)	increase in MIC on serial passaging [15]: little change; IC50 [16]: 20.9 µg/mL (≈ 70.3 µM); IC50 [17]: 4.42 µg/mL (≈ 14.9 µM); IC50 [18]: 1.01 µg/mL (≈ 3.4 µM); persistence of bactericidal activity ([3]; 2 × MIC): 12 h; reduction of bacterial count ([3]; 2 × MIC, after 2 h, start 5.5 log10 CFU/mL): > 5 log10 CFU/mL; melting point: 232 to 234 °C
